From patent US20060035892A1, “Nitrosated imidazopyridines” (Atlanta Pharma AG, priority 2002, published 2006) come the findings set out here.

In this assay the test system is acid secretion stimulated by pentagastrin of the perfused rat stomach. Briefly: Secretion-inhibiting action on the perfused rat stomach (pentagastrin-stimulated acid secretion in vivo). The settings on record: anesthetized female CD rats, pentagastrin 1 μg/kg i.v. stimulation, dose 1 μmol/kg i.d. From the text:
Testing of the Secretion-Inhibiting Action on the Perfused Rat Stomach
In Table A below, the influence of the compounds according to the invention after […] administration is shown on the acid secretion stimulated by pentagastrin of the perfused rat stomach in vivo.
The abdomen of anesthetized rats (CD rats, female, 200-250 g; 1.5 g/kg i.m. urethane) was opened after tracheotomy by means of a median upper abdominal incision and a PVC catheter was fixed transorally in the esophagus and a further catheter via the pylonus such that the ends of the tubing just projected into the gastric lumen. The catheter leading from the pylorus led outwards through a side opening in the right abdominal wall.
After thorough rinsing (about 50-100 ml), warm physiological NaCl solution at 37° C. was continuously passed through the stomach (0.5 ml/min, pH 6.8-6.9; Braun-Unita I). The pH (pH meter 632, glass electrode EA 147; φ=5 mm, Metrohm), and, by titration with a freshly prepared 0.01N NaOH solution to pH 7 (Dosimat 665 Metrohm), the secreted HCl were determined in the effluent in each case collected at an interval of 15 minutes.
The gastric secretion was stimulated by continuous perfusion of 1 μg/kg (=1.65 ml/h) of i.v. pentagastrin (left femoral vein) about 30 min after the end of the operation (i.e. after determination of 2 preliminary fractions). The substances to be tested were administered Intraduodenally in 2,5 ml/kg of liquid volume 60 min after the start of the pentagastrin continuous infusion.
The body temperature of the animals was kept at a constant 37.8-38° C. by infrared irradiation and heat pads (automatic, stepless control by means of rectal temperature sensors).

With `COCCO[C@@H]1c2ccn3c(C)c(C)nc3c2N[C@H](c2ccccc2)[C@H]1OC(=O)CCCO[N+](=O)[O-]` [Example 2], the “Inhibition of acid secretion” value is listed as 100%.

For the compound `COCCO[C@@H]1c2ccn3c(C)c(C)nc3c2O[C@H](c2ccccc2)[C@@H]1OC(=O)CCCCO[N+](=O)[O-]` [Example 3, (7R,8R,9R)-2,3-Dimethyl-7-(2-methoxyethoxy)-9-phenyl-8-(5-nitro-oxy-valeryloxy)-7H-8,9-dihydro-pyrano[2,3-c]imdazo[1,2-a]pyridine], the “Inhibition of acid secretion” value is listed as 100%.

As for `CCC(CCCOC(=O)O[C@@H]1[C@@H](c2ccccc2)Nc2c(ccn3c(C)c(C)nc23)[C@H]1OCCOC)O[N+](=O)[O-]` (stereo partly shown) [Example 4], the “Inhibition of acid secretion” value worked out at 100%.

Consider `COCCO[C@@H]1c2ccn3c(C)c(C)nc3c2N[C@H](c2ccccc2)[C@H]1OC(=O)CCCCO[N+](=O)[O-]` [Example 1], for which the “Inhibition of acid secretion” value turned out to be 100%.
